# Tests used:
# Interleukin-2 (IL-2-LUC) = assay: IL-2-LUC promoter luciferase reporter in Jurkat T cells; type: cell-based, human; conditions: Jurkat (PMA+Ion); for IC50: Homo sapiens, approximated value, read-out: IL-2-LUC IC-50
# Procedure: (§1) It was also analyzed how these compounds affect transcriptional induction mediated by the transcription factors Nuclear factor of activated T cells (NFAT) or Nuclear factor (NF)-κB. In these experiments, Jurkat T cells or THP-1 cells were transiently transfected by the Lipofectamine2000 reagent (Invitrogen), with luciferase reporter constructs whose expression are directed by three copies of the Interleukin-2 (IL-2) NFAT responsive element (NFAT-LUC) or by three copies of an NF-κB responsive element (NF-κB-LUC). Cells were treated with increased doses of the compound according to example 1 in the presence or absence of stimulation with the phorbol ester PMA (15 ng/ml) plus the A23187 calcium ionophore (1µM) for 6 hours in Jurkat cells or with LPS (5 µg/ml) for 18 hours in THP-1 cells and luciferase activity was measured in cell lysates. Results obtained are represented as percentage of activation, considering 100% the value of luciferase activity obtained in stimulated cells in the absence of the compound according to example 1. The approximate IC-50 (µM) values for the inhibition of the transcriptional activation of NFAT and NF-κB are also shown (Table 2).
# (§2) The compound according to example 1 was measured for its ability to regulate gene transcription in immune activation through the modulation of the transcriptional activity of luciferase reporter constructs whose expression is directed by the promoter region of genes involved in the inflammation process and immune activation, such as cyclooxygenase-2 (COX-LUC), tumor necrosis factor α (TNF-LUC), Interleukin-2 (IL-2-LUC), Interleukin-6 (IL-6-LUC) and the inducible Nitric Oxide Synthase (iNOS-LUC). Jurkat T cells or THP-1 cells were transiently transfected with these constructs as described above, and treated with different doses of The compound according to example 1 in the presence or absence of stimulation with PMA plus Ion (Jurkat) or LPS in a similar way as for NFAT-LUC and NFKB-LUC reporter analysis. Results are represented as percentage of activation, considering 100% the value of luciferase activity obtained in stimulated cells in the absence of the compound according to example 1. Approximated IC50 (µM) values obtained for inhibition of the transcriptional activation are summarized in tables 3 (Jurkat) and 4 (THP-1).
# [1] = tested on: cyclooxygenase-2 (COX-LUC); assay: COX2-LUC promoter luciferase reporter in Jurkat T cells; type: cell-based, human; conditions: Jurkat (PMA+Ion); for IC50: Homo sapiens, approximated value, read-out: COX2-LUC IC-50
# Procedure: as §1, §2
# [2] = tested on: Nuclear factor of activated T cells (NFAT); assay: NFAT-LUC luciferase reporter, transcriptional activation in Jurkat T cells; type: cell-based, human; conditions: Jurkat (PMA+Ion), 6 hours; for IC50: Homo sapiens, approximate value, read-out: NFAT-LUC IC-50
# Procedure: as §1
# [3] = tested on: inducible Nitric Oxide Synthase (iNOS-LUC); assay: iNOS-LUC promoter luciferase reporter in THP-1 cells; type: cell-based, human; conditions: THP-1 (LPS); for IC50: Homo sapiens, approximated value, read-out: iNOS-LUC IC-50
# Procedure: as §1, §2
# Nuclear factor (NF)-κB [4] = assay: NF-κB-LUC luciferase reporter, transcriptional activation in Jurkat T cells; type: cell-based, human; conditions: Jurkat (PMA+Ion), 6 hours; for IC50: Homo sapiens, approximate value, read-out: NF-κB -LUC IC-50
# Procedure: as §1
# Nuclear factor (NF)-κB [5] = assay: NF-κB-LUC luciferase reporter, transcriptional activation in THP-1 cells; type: cell-based, human; conditions: THP-1 (LPS), 18 hours; for IC50: Homo sapiens, approximate value, read-out: NF-κB-LUC IC-50
# Procedure: as §1
# [6] = Cell viability, tetrazolium salt WST-1, unstimulated Jurkat cells; type: cell-based; conditions: human, Jurkat (Cont), read-out: percentage of viability
# Procedure: (§3) The viability of the cells was measured by the use of the tetrazolium salt WST-1 (Roche Molecular Biochemicals). Unstimulated Jurkat cells or LPS (5 µg/ml) treated THP-1 cells were incubated for 24 or 18 hours respectively in the presence of increasing doses of the compound according to example 1 (1, 10, 100, 1000 and 10000 nM) and incubated with 10% of WST-1 reagent for 1 hour. Quantification of the formazan dye produced by metabolically active cells was spectrophotometrically measured at 450 nm and a reference wavelength of 630 nm. Data are represented as percentage of viability considering 100% the value of absorbance obtained in the absence of example 1 (Table 1).
# [7] = In-vivo bioassay system for determination of cannabinoid activity (hot-plate test, hypothermia, catalepsy, sedation); conditions: for Agonistic effect A: Hot-Plate test / Agonistic effect B: Hypothermia / Agonistic effect C: Catalepsy / Agonistic effect D: Sedation: 5 mg/kg i.v.
# [8] = tested on: tumor necrosis factor α (TNF-LUC); assay: TNF-LUC promoter luciferase reporter in THP-1 cells; type: cell-based, human; conditions: THP-1 (LPS); for IC50: Homo sapiens, approximated value, read-out: TNF-LUC IC-50
# Procedure: as §1, §2
# IL-2 = assay: Inhibition of cytokine production: IL-2 secretion by Jurkat T cells, ELISA; type: cell-based, human; conditions: Jurkat (PMA+Ion), 24 hours; for IC50: Homo sapiens, approximated value, read-out: IL-2 IC-50 (µM), inhibition of the cytokine production
# Procedure: (§4) In addition to the transcriptional assays, we have also determined the effects of the compound according to example 1 in the secretion of TNFα and IL-2 to the culture medium. Jurkat T cells were treated with different doses of the compound according to example 1 in the presence or absence of stimulation with PMA plus Ion for 24 hours. Supematants were collected and cytokines were measured by specific ELISA for each cytokine (Bender MedSystems). Results are represented as percentage of cytokine production, considering 100% the maximal levels of cytokine production (pg/ml) obtained in PMA+lon stimulated Jurkat cells in the absence of the compound according to example 1.
# [9] = tested on: tumor necrosis factor α (TNF-LUC); assay: TNF-LUC promoter luciferase reporter in Jurkat T cells; type: cell-based, human; conditions: Jurkat (PMA+Ion); for IC50: Homo sapiens, approximated value, read-out: TNF-LUC IC-50
# Procedure: as §1, §2
# [10] = Cell viability, tetrazolium salt WST-1, LPS treated THP-1 cells; type: cell-based; conditions: human, THP-1 (LPS 5 µg/ml), read-out: percentage of viability
# Procedure: as §3
# Interleukin-6 (IL-6-LUC) = assay: IL-6-LUC promoter luciferase reporter in Jurkat T cells; type: cell-based, human; conditions: Jurkat (PMA+Ion); for IC50: Homo sapiens, approximated value, read-out: IL-6-LUC IC-50
# Procedure: as §1, §2
# [11] = tested on: cyclooxygenase-2 (COX-LUC); assay: COX2-LUC promoter luciferase reporter in THP-1 cells; type: cell-based, human; conditions: THP-1 (LPS); for IC50: Homo sapiens, approximated value, read-out: COX2-LUC IC-50
# Procedure: as §1, §2
# TNFα = assay: Inhibition of cytokine production: TNFα secretion by Jurkat T cells, ELISA; type: cell-based, human; conditions: Jurkat (PMA+Ion), 24 hours; for IC50: Homo sapiens, approximated value, read-out: TNF IC-50 (µM), inhibition of the cytokine production
# Procedure: as §4
# [12] = 5 mg/kg i.v. prior to Win 55212-2 in a dose of 1,25mg/kg i.v.
smiles,measurement,setting,value
"O=C(NN1CCCCC1)C1=NN(c2ccc(Cl)cc2Cl)C(c2ccc(Cl)cc2)C1 (stereo not shown) [Example 1, N-piperidinyl-5-(4-chlorophenyl)-1-(2,4-dichlorophenyl)-4,5-dihydro-1H-pyrazole-3-carboxamide]",IC50,Interleukin-2 (IL-2-LUC),1 µM
same,IL-2-LUC percentage of activation,Interleukin-2 (IL-2-LUC); 0.01 µM,85.9%
same,IL-2-LUC percentage of activation,Interleukin-2 (IL-2-LUC); 1 µM,49.0%
same,IL-2-LUC percentage of activation,Interleukin-2 (IL-2-LUC); 10 µM,9.9%
same,IC50,[1],8 µM
same,COX2-LUC percentage of activation,[1]; 0.01 µM,102.7%
same,COX2-LUC percentage of activation,[1]; 1 µM,93.2%
same,COX2-LUC percentage of activation,[1]; 10 µM,31.5%
same,IC50,[2],3 µM
same,NFAT-LUC percentage of activation,[2]; 0.01 µM,72.4%
same,NFAT-LUC percentage of activation,[2]; 1 µM,56.8%
same,NFAT-LUC percentage of activation,[2]; 10 µM,7.4%
same,IC50,[3],4 µM
same,iNOS-LUC percentage of activation,[3]; 0.01 µM,89.5%
same,iNOS-LUC percentage of activation,[3]; 1 µM,71.3%
same,iNOS-LUC percentage of activation,[3]; 10 µM,13.2%
same,IC50,Nuclear factor (NF)-κB [4],7 µM
same,NF-κB-LUC percentage of activation,Nuclear factor (NF)-κB [4]; 0.01 µM,94.7%
same,NF-κB-LUC percentage of activation,Nuclear factor (NF)-κB [4]; 1 µM,74.4%
same,NF-κB-LUC percentage of activation,Nuclear factor (NF)-κB [4]; 10 µM,39.3%
same,IC50,Nuclear factor (NF)-κB [5],6 µM
same,NF-κB-LUC percentage of activation,Nuclear factor (NF)-κB [5]; 0.01 µM,100.4%
same,NF-κB-LUC percentage of activation,Nuclear factor (NF)-κB [5]; 1 µM,104.6%
same,NF-κB-LUC percentage of activation,Nuclear factor (NF)-κB [5]; 10 µM,3.4%
same,"viability at 24 h, 0.01 µM",[6]; 10 nM,92.6%
same,"viability at 24 h, 0.1 µM",[6]; 100 nM,95.4%
same,"viability at 24 h, 1 µM",[6]; 1000 nM,96.3%
same,"viability at 24 h, 10 µM",[6]; 10000 nM,97.7%
same,Agonistic effect A: Hot-Plate test,[7],0
same,Agonistic effect B: Hypothermia,[7],0
same,Agonistic effect C: Catalepsy,[7],0
same,Agonistic effect D: Sedation,[7],0
same,Antagonistic Effect B: Hypothermia,[7]; [12],100
same,Antagonistic Effect C: Catalepsy,[7]; [12],100
same,Antagonistic Effect D: Sedation,[7]; [12],100
same,IC50,[8],3 µM
same,TNF-LUC percentage of activation,[8]; 0.01 µM,104.4%
same,TNF-LUC percentage of activation,[8]; 1 µM,65.4%
same,TNF-LUC percentage of activation,[8]; 10 µM,12.7%
same,IC50,IL-2,6 µM
same,IL-2 percentage of cytokine production,IL-2; 0.01 µM,97.5%
same,IL-2 percentage of cytokine production,IL-2; 1 µM,98.7%
same,IL-2 percentage of cytokine production,IL-2; 10 µM,13.2%
same,IC50,[9],0.1 µM
same,TNF-LUC percentage of activation,[9]; 0.01 µM,59.5%
same,TNF-LUC percentage of activation,[9]; 1 µM,29.9%
same,TNF-LUC percentage of activation,[9]; 10 µM,13.7%
same,"viability at 18 h, 0.01 µM",[10]; 10 nM,105%
same,"viability at 18 h, 1 µM",[10]; 1000 nM,110%
same,"viability at 18 h, 10 µM",[10]; 10000 nM,80.2%
same,IC50,Interleukin-6 (IL-6-LUC),4 µM
same,IL-6-LUC percentage of activation,Interleukin-6 (IL-6-LUC); 0.01 µM,82.3%
same,IL-6-LUC percentage of activation,Interleukin-6 (IL-6-LUC); 1 µM,61.8%
same,IL-6-LUC percentage of activation,Interleukin-6 (IL-6-LUC); 10 µM,18.6%
same,IC50,[11],2 µM
same,COX2-LUC percentage of activation,[11]; 0.01 µM,102.7%
same,COX2-LUC percentage of activation,[11]; 1 µM,59.6%
same,COX2-LUC percentage of activation,[11]; 10 µM,6.8%
same,IC50,TNFα,5 µM
same,TNF percentage of cytokine production,TNFα; 0.01 µM,79.5%
same,TNF percentage of cytokine production,TNFα; 1 µM,80.3%
same,TNF percentage of cytokine production,TNFα; 10 µM,11.5%
"Cc1c(C(=O)NN2CCCCC2)nn(-c2ccc(Cl)cc2Cl)c1-c1ccc(Cl)cc1 [SR141716, reference compound]",IC50,Interleukin-2 (IL-2-LUC),0.1 µM
same,IC50,[1],> 10 µM
same,IC50,[2],0.2 µM
same,IC50,[3],3 µM
same,IC50,Nuclear factor (NF)-κB [4],1 µM
same,IC50,Nuclear factor (NF)-κB [5],5 µM
same,IC50,[8],3 µM
same,IC50,IL-2,7 µM
same,IC50,[9],0.01 µM
same,IC50,Interleukin-6 (IL-6-LUC),1 µM
same,IC50,[11],6 µM
same,IC50,TNFα,6 µM
"O=C(C1=NN(c2ccc(Cl)cc2Cl)C(c2ccc(Cl)cc2)C1)N1CCCCC1 (stereo not shown) [Example 5, [5-(4-Chloro-phenyl)-1-(2,4-dichloro-phenyl)-4,5-dihydro-1H-pyrazol-3-yl]-piperidin-1-yl-methanone]",Agonistic effect A: Hot-Plate test,[7],0
same,Agonistic effect B: Hypothermia,[7],50
same,Agonistic effect C: Catalepsy,[7],0
same,Agonistic effect D: Sedation,[7],0
same,Antagonistic Effect A: Hot-Plate test,[7]; [12],50
same,Antagonistic Effect B: Hypothermia,[7]; [12],40
same,Antagonistic Effect C: Catalepsy,[7]; [12],20
same,Antagonistic Effect D: Sedation,[7]; [12],20
